# In patent US9796753B2, “N-substituted indenoisoquinolines and syntheses thereof” (Purdue Research Foundation, priority 2005, dated 2017):
# Read-outs that look alike come from different tables or passages of the source.
# What was measured:
# Type in all cases: cell-based
# CNS SF-539 = test: COMPARE screening (NCI human cancer cell line screen), cytotoxicity GI50
# Experimental: (§1) Selected compounds were tested for antiproliferative activity in the National Cancer Institute's developmental therapeutics assay 60 cell line screen (NCI60). The cells were incubated with the tested compounds at 100, 10, 1, 0.1, and 0.01 μM concentrations for 48 h before treatment with sulforhodamine B dye. Optical densities were recorded, and their ratios relative to that of the control were plotted as percentage growth against the log 10 of the tested compound concentrations.
# renal SN12C = test: as above
# Experimental: as §1
# colon HCT-116 = test: as above
# Experimental: as §1
# prostate DU-145 = test: as above
# Experimental: as §1
# melanoma UACC-62 = test: as above
# Experimental: as §1
# lung HOP-62 = test: as above
# Experimental: as §1
# ovarian OVCAR-3 = test: as above
# Experimental: as §1
# breast MDA-MB-435 = test: as above
# [1] = test system: all human cancer cell lines successfully tested; test: NCI screen mean graph midpoint (MGM) for growth inhibition
# Experimental: COMPARE screening. The compounds described herein were examined for antiproliferative activity against the human cancer cell lines in the National Cancer Institute screen (COMPARE screening), in which the activity of each compound was evaluated with approximately 55 different cancer cell lines of diverse tumor origins. […] Therefore, the MGM value represents an overall assessment of toxicity of the compound across numerous cell lines.
# as §1
# The cytotoxicities of the compounds to cultured cancer cells were measured in the National Cancer Institute's 60 cell line assay (a.k.a. NCI-60).
# [2] = Table 1, average GI50 of all cell lines tested (approximately 55), test range 10^−8 to 10^−4 molar
# [3] = Table 1, concentration corresponding to 50% growth inhibition, read-out: cytotoxicity (GI50) ovarian OVCAR-3
# [4] = all human cancer cell lines successfully tested
Structure (SMILES),GI50 (CNS SF-539) [nM],GI50 (renal SN12C) [nM],GI50 (colon HCT-116) [nM],GI50 (prostate DU-145) [nM],GI50 (melanoma UACC-62) [nM],GI50 (lung HOP-62) [nM],GI50 (ovarian OVCAR-3) [nM],GI50 (breast MDA-MB-435) [nM],"MGM (mean graph midpoint for growth inhibition) [1, 2] [µM]","MGM (mean GI50 across cell lines) [1, 2] [nM]",also measured
COc1ccc2c(c1)C(=O)c1c-2n(CCCCl)c(=O)c2cc([N+](=O)[O-])ccc12 [Compound 5ba],27,< 10,794,36,< 10,295,3390,3240,0.178 ± 0.012,,
COc1ccc2c(c1)C(=O)c1c-2n(CCCN=[N+]=[N-])c(=O)c2ccccc12 [Compound 5bf],44700,> 100000,26900,61700,75900,33900,52500,64600,,38900,
COc1ccc2c(c1)C(=O)c1c-2n(CCCN2CCOCC2)c(=O)c2ccccc12 [Compound 5bk],1950,4070,1260,2290,1580,1410,2690,4680,2.70 ± 0.125,,
Cl.O=C1c2ccccc2-c2c1c1ccc([N+](=O)[O-])cc1c(=O)n2CCCNCCO [Compound 5bl],> 100000,229,27,> 100000,200,31,1350,1070,0.296 ± 0.067,,
COc1ccc2c(c1)C(=O)c1c-2n(CCCNCCO)c(=O)c2ccccc12.Cl [Compound 5bn],112,158,44,55,550,26,417,389,0.124 ± 0.014,,
COc1ccc2c(c1)C(=O)c1c-2n(CCCN(C)C)c(=O)c2cc([N+](=O)[O-])ccc12 [Compound 5bp],< 10,< 10,< 10,< 10,< 10,< 10,28,< 10,0.020 ± 0.001,,
COc1ccc2c(c1)C(=O)c1c-2n(CCCN(C)C)c(=O)c2ccccc12 [Compound 5bq],240,245,102,257,1000,78,427,617,0.300 ± 0.072,,
COc1ccc2c(c1)C(=O)c1c-2n(CCCn2ccnc2)c(=O)c2cc([N+](=O)[O-])ccc12 [Compound 5br],< 10,< 10,< 10,< 10,< 10,< 10,20,< 10,0.019 ± 0.004,,
COc1ccc2c(c1)C(=O)c1c-2n(CCCn2ccnc2)c(=O)c2ccccc12 [Compound 5bs],178,676,110,204,71,56,1660,646,0.416 ± 0.134,,
COc1cc2c3c(n(CCCn4ccnc4)c(=O)c2cc1OC)-c1ccccc1C3=O [Compound 5e],< 10,< 10,10,< 10,< 10,< 10,< 10,14,,33,
O=C1c2ccccc2-c2c1c1ccc([N+](=O)[O-])cc1c(=O)n2CCCn1ccnc1 [Compound 5f],16,15,274,17,12,190,864,2170,0.370 ± 0.28,,
COc1cc2c3c(n(CCN4CCOCC4)c(=O)c2cc1OC)-c1ccccc1C3=O [Compound 5h],> 100000,> 100000,60300,> 100000,56200,89100,> 100000,> 100000,,741000,
O=C1c2ccccc2-c2c1c1ccccc1c(=O)n2CCN1CCOCC1 [Compound 5j],85100,93300,36300,> 100000,29500,> 100000,81300,> 100000,,67600,
COc1cc2c3c(n(CCCn4cccn4)c(=O)c2cc1OC)-c1cc2c(cc1C3=O)OCO2 [Compound 5m],398,316,1990,363,269,447,56200,7080,2.16 ± 0.24,,
"COc1cc2c3c(n(CCCn4cncn4)c(=O)c2cc1OC)-c1cc2c(cc1C3=O)OCO2.Cl [Compound 5n, 6-{3-[2-(1,2,4)]-Triazolyl-1-propyl}-5,6-dihydro-2,3-dimethoxy-8,9-methylenedioxy-5,11-dioxo-11H-indeno[1,2-c]isoquinoline Hydrochloride]",288,85,1910,85,< 10,79,61700,> 100000,,3550,
"COc1cc2c3c(n(CCCNc4nccs4)c(=O)c2cc1OC)-c1cc2c(cc1C3=O)OCO2.Cl.Cl [Compound 5o, 6-(3-Thiazolylamino-1-propyl)-5,6-dihydro-2,3-dimethoxy-8,9-methylenedioxy-5,1-dioxo-11H-indeno[1,2-c]isoquinoline Dihydrochloride]",< 10,< 10,< 10,< 10,14,< 10,,< 10,0.112 ± 0.066,,GI50 (ovarian OVCAR-3; [3]): 41 nM
COc1cc2c3c(n(CCCN4CCN(C)CC4)c(=O)c2cc1OC)-c1cc2c(cc1C3=O)OCO2 [Compound 5t],17800,11500,1480,10700,15100,18200,15100,> 100000,,12000,
"COc1cc2c3c(n(CCCN4CCC(N)CC4)c(=O)c2cc1OC)-c1cc2c(cc1C3=O)OCO2.Cl.Cl [Compound 5u, 6-[3-(4-Aminopiperidinyl)-1-propyl]-5,6-dihydro-2,3-dimethoxy-8,9-methylenedioxy-5,11-dioxo-11H-indeno[1,2-c]isoquinoline Dihydrochloride]",100,257,120,182,1290,427,,1740,0.766 ± 0.254,,GI50 (ovarian OVCAR-3; [3]): 832 nM
"Nn1c2c(c3ccccc3c1=O)C(=O)c1ccccc1-2 [Compound 5z, 6-Amino-5,6-dihydro-5,11-diketo-11H-indeno[1,2-c]isoquinoline]",,,,,,,,,,39800,"GI50 (CNS SF-539; Homo sapiens, CNSSF-539, read-out: cytotoxicity (GI50) CNS SF-539): 28200 nM; GI50 (renal SN12C; Homo sapiens, SN12C, read-out: cytotoxicity (GI50) renal SN12C): > 50100 nM; GI50 (colon HCT-116; Homo sapiens, HCT-116, read-out: cytotoxicity (GI50) colon HCT-116): > 50100 nM; GI50 (prostate DU-145; Homo sapiens, DU-145, read-out: cytotoxicity (GI50) prostate DU-145): > 50100 nM; GI50 (melanoma UACC-62; Homo sapiens, UACC-62, read-out: cytotoxicity (GI50) melanoma UACC-62): > 50100 nM; GI50 (lung HOP-62; Homo sapiens, HOP-62, read-out: cytotoxicity (GI50) lung HOP-62): 24500 nM; GI50 (ovarian OVCAR-3; Homo sapiens, OVCAR-3, read-out: cytotoxicity (GI50) ovarian OVCAR-3): > 50100 nM; GI50 (breast MDA-MB-435; Homo sapiens, MDA-MB-435, read-out: cytotoxicity (GI50) breast MDA-MB-435): > 50100 nM"
"O=C1c2ccccc2-c2c1c1ccccc1c(=O)n2CCNCCn1c2c(c3ccccc3c1=O)C(=O)c1ccccc1-2 [Compound 12a, Bis{(5,6-dihydro-5,11-diketo-11H-indeno[1,2-c]isoquinoline)-6-ethyl}amine]",> 25100,> 25100,> 25100,> 25100,> 25100,> 25100,> 25100,> 25100,,,"MGM (mean GI50 across cell lines) [1, 4]: 18200 nM"
"O=C1c2ccccc2-c2c1c1ccccc1c(=O)n2CCCNCCCn1c2c(c3ccccc3c1=O)C(=O)c1ccccc1-2 [Compound 12c, Bis{(5,6-dihydro-5,11-diketo-11H-indeno[1,2-c]isoquinoline)-6-propyl}amine]",3630,1550,550,1000,6610,794,2950,8910,,,"MGM (mean graph midpoint for growth inhibition) [1, 4]: 4.28 ± 1.89 µM"
